# Results as given in ChEMBL document CHEMBL1201862, “PubChem BioAssay data set” (2004).
#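 96-well plates; 48 h exposure; 5 concentrations. Endpoints by linear interpolation between flanking doses. Not reached: highest tested concentration assigned. The concentration for 50% growth inhibition is given as GI50.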 The source made the active and inactive calls. Rule as the data show it: active = GI50 up to about 1.1 µM and inactive = higher.
# How the values were obtained:
# Experiment in all cases: growth of human tumour cells (NCI), 48 h
# HCT-116 = test system: HCT-116
# SNB-19 = test system: SNB-19
# NCI-H226 = test system: NCI-H226
# NCI-H522 = test system: NCI-H522
# UACC-257 = test system: UACC-257
# SW-620 = test system: SW-620
# CCRF-CEM = test system: CCRF-CEM
# SNB-75 = test system: SNB-75
# NCI-H23 = test system: NCI-H23
# NCI-H460 = test system: NCI-H460
# OVCAR-3 = test system: OVCAR-3
# SK-MEL-28 = test system: SK-MEL-28
# SN12C = test system: SN12C
# A549 = test system: A549
# SK-OV-3 = test system: SK-OV-3
# HCT-15 = test system: HCT-15
# PC-3 = test system: PC-3
# Hs-578T = test system: Hs-578T
# NCI/ADR-RES = test system: NCI/ADR-RES
SMILES,GI50 (HCT-116),GI50 (SNB-19),GI50 (NCI-H226),GI50 (NCI-H522),GI50 (UACC-257),GI50 (SW-620),GI50 (CCRF-CEM),GI50 (SNB-75),GI50 (NCI-H23),GI50 (NCI-H460),GI50 (OVCAR-3),GI50 (SK-MEL-28),GI50 (SN12C),GI50 (A549),GI50 (SK-OV-3),GI50 (HCT-15) [µM],GI50 (PC-3),GI50 (Hs-578T),GI50 (NCI/ADR-RES)
Cc1ccc2nc3c(C)cc(=O)cc-3sc2c1,17.3 µM (inactive),38.1 µM (inactive),24.8 µM (inactive),17.8 µM (inactive),20.2 µM (inactive),17.2 µM (inactive),10.5 µM (inactive),32.7 µM (inactive),20.8 µM (inactive),23.4 µM (inactive),22 µM (inactive),25.9 µM (inactive),21.3 µM (inactive),20.1 µM (inactive),59.6 µM (inactive),16,,,
O=C(N/C(=C\c1ccc([N+](=O)[O-])cc1)c1nc2c(O)nc(S)nc2[nH]1)c1ccccc1,,> 100 µM (inactive),,57.1 µM (inactive),,> 100 µM (inactive),92.3 µM (inactive),,> 100 µM (inactive),,> 100 µM (inactive),> 100 µM (inactive),> 100 µM (inactive),> 100 µM (inactive),> 100 µM (inactive),> 100,,,
CC1CN=C(Nc2ccc(S(N)(=O)=O)cc2)S1 (stereo not given),> 100 µM (inactive),> 100 µM (inactive),,,> 100 µM (inactive),> 100 µM (inactive),> 100 µM (inactive),> 100 µM (inactive),> 100 µM (inactive),> 100 µM (inactive),> 100 µM (inactive),> 100 µM (inactive),> 100 µM (inactive),> 100 µM (inactive),> 100 µM (inactive),> 100,> 10 µM (inactive),> 100 µM (inactive),> 100 µM (inactive)
O=c1c2ccccc2c(=O)n2n1-c1cccc(c1)CSSCc1cccc-2c1,> 10 µM (inactive),> 10 µM (inactive),> 10 µM (inactive),> 10 µM (inactive),> 10 µM (inactive),> 10 µM (inactive),> 10 µM (inactive),> 10 µM (inactive),> 10 µM (inactive),> 10 µM (inactive),> 10 µM (inactive),> 10 µM (inactive),> 10 µM (inactive),> 10 µM (inactive),52.8 µM (inactive),> 10,,,
